Key:
PASMCs = assay: BrdU proliferation in PASMCs; format: cell-based, human; details: IL-6/sIL-6R + hypoxia
Protocol: (§1) In IL-6/sIL-6R+hypoxia experiments, a human recombinant IL-6/IL-6R alpha protein chimera (25 ng/ml, Millipore) was administered at 70-80% confluency for 48 h in complete media along with vehicle control (DMSO, Sigma-41639). BRD2889 (1 uM) vs. vehicle control were added, as indicated, and placed into a hypoxia chamber for 24 h. The hypoxia chamber (modular incubator chamber) was obtained from Billups-Rothenberg Inc. (Del Mar, Calif) and placed in regulated CO2 incubator at 37° C.
BrdU growth assay: Cell proliferation was assayed relative to day 0 using a BrdU Cell Proliferation Assay Kit (#6813, Cell Signaling) according to the manufacturer's protocol after incubation for 2 h with BrdU.

GST activity = GST activity in PASMCs; format: cell-based, human; details: IL-6/R + hypoxia, BRD2889 1 uM
Protocol: as §1

[1] = biological target: T1, glutathione S-transferase (GST) activity / GSTP1 (Homo sapiens, UniProt P09211); assay: GST activity in PAECs; format: cell-based
T1 construct: endogenous in cells; host or cells: primary human PAECs (hypoxia or IL-6/sIL-6R+hypoxia)
Protocol: (§2) For hypoxia exposure, cells were plated in 6-well cell culture plates at 1×10^5 cells/well, grown for 24 hr and placed into a normobaric hypoxia chamber (1% O2) for 24 h under specific treatment conditions. Namely, for I-BET and siLGALS8 exposures, cells were either pre-treated with I-BET/vehicle control (VC) or transfected with siLgals8/Scr for 24 h. Then, they were cultured in basal media at 1% 02. After 24 h, caspase activity and mitochondrial superoxide levels were quantified. To detect activation status of pSTAT1/STAT1 by immunoblot, cells were exposed to 8 h of hypoxia.
as §1

[2] = tested on: monocrotaline-exposed pulmonary arterial hypertension rats; assay: Monocrotaline (MCT) pulmonary arterial hypertension rat model; details: BRD2889 5 mg/kg i.p. every 5 days, Days 12-26 post-MCT
Protocol: (§3) Following euthanasia, right ventricle/[left ventricle+septum]
Measurement of GST activity: The GST activity from lung tissue and PAECs was assayed using GST assay kit (Cayman, MI, USA) per the manufacturer's instructions.

[3] = biological target: glutathione S-transferase pi 1 (GSTP1) (Homo sapiens, UniProt P09211); details: literature report; cited from earlier work
hypoxic IL-6 Tg mice = assay: Hypoxic IL-6 transgenic pulmonary arterial hypertension mouse model; format: in vivo, IL-6 transgenic C57BL/6 mice
Protocol: as §3
Pulmonary-specific IL-6 transgenic mice (C57BL/6 background) were described previously (Steiner M K et al. Circ Res. 2009, 104, 236-244, 228p following 244). These mice were bred in house, and 12 week old male transgenic mice vs. control littermates were compared. Mice were injected i.p. every 3 days with vehicle control (2.5% DMSO) vs. BRD2889 (5 mg/kg vs. 10 mg/kg), followed by exposure to normobaric hypoxia (10% O2; OxyCycler chamber, Biospherix Ltd, Redfield, NY) for 14 days, as described (Steiner M K et al. Circ Res. 2009, 104, 236-244, 228p following 244).
Rodent echocardiography: Echocardiography was performed using a 15-45 MHz transthoracic transducer and a Visual Sonics Vevo 3100 system (Fujifilm). Inhaled isoflurane anesthesia was used at 2% in 100% O2 during positioning and hair removal and then decreased to isoflurane 0.8% during imaging.

ISCU = assay: Immunoblot of ISCU and GSTP1 in PAECs; format: cell-based, human
Protocol: as §2, §1
Protein stability assay: The proteasome inhibitor MG132 (M7449, Sigma) was stored at −20° C. at a concentration of 10 mM diluted in dimethyl sulfoxide (DMSO). PAECs were exposed to MG132 ([…]) vs. DMSO vehicle control for 2 hr under hypoxia, prior to harvesting of cellular lysate for immunoblotting.
Immunoblot and densitometry: Cells were lysed in RIPA buffer (Sigma) along with 1× protease inhibitor cocktail (Sigma). Protein lysate was resolved by gradient 4%-15% SDS-PAGE gels and transferred onto a 0.2 μm PVDF membrane (Bio-Rad). Membranes were blocked in 5% non-fat milk in 1×PBST buffer for one hour at room temperature. Later, they were incubated in the presence of the primary antibody overnight at 4° C. and then appropriate HRP-conjugated secondary antibodies (Life Technologies). The following antibodies were used: human LGALS8 (AF1305, RnD Systems), mouse/rat Lgals8 (ab69631, Abcam), pSTAT1 (ab29045, Abcam) and STAT1 (ab47425, Abcam), GSTP1 (ab153949, Abcam), ISCU (14812-1-AP, Prointech), Glutathione (ab19534, Abcam), HIF2A (NB100-122, Novous), α-Tubulin (CP06, Millipore sigma), and ACTB (sc-47778, Santa Cruz). The immunoreactive bands were visualized with the Chemidoc XRS+system (Bio-Rad) using SuperSignal West Femto chemiluminescent substrates (Thermo Fisher Scientific). The images were later quantified using AlphaEaseFC software (Alpha Innotech).

[4] = PAECs, IL-6/sIL-6R + hypoxia, BRD2889 1 uM
[5] = BRD2889 10 mg/kg vs vehicle, 10 days of treatment
[6] = BRD2889 5 and 10 mg/kg IP every three days

T1 sequence (P09211 2-210 limits assumed): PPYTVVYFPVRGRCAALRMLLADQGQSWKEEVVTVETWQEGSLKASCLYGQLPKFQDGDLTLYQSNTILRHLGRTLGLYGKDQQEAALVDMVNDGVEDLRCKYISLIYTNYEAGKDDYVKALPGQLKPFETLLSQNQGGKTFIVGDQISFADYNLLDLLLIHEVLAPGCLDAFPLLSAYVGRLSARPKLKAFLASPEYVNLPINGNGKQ
Chain of glutathione S-transferase pi 1 (GSTP1) (P09211 whole entry, species assumed): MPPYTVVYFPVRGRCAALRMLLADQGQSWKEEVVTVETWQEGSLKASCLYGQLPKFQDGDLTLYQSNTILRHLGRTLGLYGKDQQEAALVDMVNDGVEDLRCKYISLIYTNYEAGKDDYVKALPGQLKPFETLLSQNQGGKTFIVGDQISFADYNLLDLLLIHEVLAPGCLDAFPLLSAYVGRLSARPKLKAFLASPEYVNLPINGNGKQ

In the case of COc1ccc(C#CC2CCCN(C(=O)/C=C/c3cc(OC)c(OC)c(OC)c3)C2=O)cc1 (centres unmarked) [BRD2889], the proliferation (PASMCs) is reported as “did not affect”, the GST activity (GST activity) is reported as “did not affect” and the “GSTP1 (GST) activity” value [1, 4] is reported as “reversed the increase”. The GST enzyme activity ([1]; hypoxic PAECs) was “reduced the hypoxic increase”, the “Fulton index (RV/LV+S)” value [2] was “reduced” and the RVSP [2] was “reduced”. The arteriolar muscularization [2] was “reduced”, the “cleaved caspase-3 (CC-3)” value [2] was “decreased” and the “endothelial ISCU” value [2] was “increased”. The “lung GST activity” value [2] was “decreased”, the “inhibition of GSTP1” value [3] was “known to inhibit” and the “lung total GST enzyme activity” value (hypoxic IL-6 Tg mice; BRD2889 5 mg/kg (low) and 10 mg/kg (high) IP every three days, 14 days hypoxia) was “dose-dependent reduction”. For the same compound, the heart rate (hypoxic IL-6 Tg mice; [5]) was “No differences”, the “left ventricular function (fractional shortening, ejection fraction, PW thickness)” value (hypoxic IL-6 Tg mice; [5]) was “No differences” and the Fulton index (hypoxic IL-6 Tg mice; [6]) was “dose-dependent reduction”. For the same compound, the “ISCU in arterioles, particularly CD31+ endothelium (in situ staining)” value (hypoxic IL-6 Tg mice; [6]) was “rescued”, the RVSP (hypoxic IL-6 Tg mice; [6]) was “dose-dependent reduction” and the arteriolar muscularization (hypoxic IL-6 Tg mice; [6]) was “reduced”. The “cleaved caspase-3 (CC-3) in whole vessels” value (hypoxic IL-6 Tg mice; [6]) was “decreased”, the GSTP1 expression (ISCU; PAECs, IL-6/R + hypoxia) was “without altering” and the “ISCU expression (immunoblot)” value (ISCU; [4]) was “reversed the decrease”. The GSTP1 expression (ISCU; hypoxic PAECs) was “did not affect” and the ISCU protein levels (ISCU; hypoxic PAECs) was “reversed hypoxia-dependent reduction”.

Reference: patent US12599592B2, “Therapeutic small molecules for treatment of pulmonary hypertension” (UNIVERSITY OF PITTSBURGH—OF THE COMMONWEALTH SYSTEM OF …, priority 2020, dated 2026)
